Consider eight molecules from patent US8637516B2 (IRM LLC, priority 2010, dated 2014).

SMILES strings stand for the structures. Read-outs that look alike come from different tables or passages of the source.

Broadly, the half-life is the time needed for the level to fall by half in the phase considered. The AUC is concentration integrated over time. Read a low AUC as less exposure. For orientation: Cmax means the maximum level reached in the sampled fluid or tissue.

The test system of one series is parental Ba/F3 cells. Briefly: Proliferation of parental (untransformed, wt) Ba/F3 cells (BAF3/WT). The format is cell-based, murine. Particulars: Mus musculus, Table 1, parental cells with IL3, 48 hours. The method in brief:
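Parental Ba/F3 cells, maintained with mouse IL-3, were plated at 700 cells/well with compound (0.17 nM to 10 uM, 3-fold dilutions). After 48 h at 37 °C, proliferation was read by Bright-Glo luminescence.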

In series [1] the target is T1, Ba/F3 cells transformed with human Tel-TrkA (Homo sapiens, UniProt P04629).
T1 construct: expressed in transfected cells; host or cells: Ba/F3 murine hematopoietic progenitor cells (luciferase expressing); the other entry of the earlier key: ETV6 (P41212, Transcription factor ETV6)
T1 sequence (P04629 510-796 limits assumed): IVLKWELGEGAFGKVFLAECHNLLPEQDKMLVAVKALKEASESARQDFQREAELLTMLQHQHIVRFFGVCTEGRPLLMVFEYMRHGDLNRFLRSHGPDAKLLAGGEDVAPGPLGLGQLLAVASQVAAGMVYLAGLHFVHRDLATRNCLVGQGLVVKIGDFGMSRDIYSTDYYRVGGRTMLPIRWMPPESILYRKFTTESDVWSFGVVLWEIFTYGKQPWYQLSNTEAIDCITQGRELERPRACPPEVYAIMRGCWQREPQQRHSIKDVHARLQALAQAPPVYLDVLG
Briefly: Proliferation of Ba/F3 cells transformed with human Tel-TrkA (Ba/F3 Tel-TrkA). The class given is cell-based. The source says: Compound dilutions were made in 384 well plates.
The emited luminiscence is quantified using ViewLux (PerkinElmer).

Series [2] in a line: Rat PK (PO 10 mg/kg, IV 3 mg/Kg). The format is in vivo. To be noted: for F / clearance / half-life / Vd / AUC / Cmax: Rat; for F / AUC / Cmax: PO 10 mg/kg, MC/Tween 80 suspension; for F / clearance / half-life / Vd: IV 3 mg/Kg; for clearance / half-life / Vd / AUC / Cmax: in vivo; for Vd: read-out: Vss.
Where [3] appears, read: Table 1, 48 hours, Bright Glo luminescence, read-out: Ba/F3 Tel-TrkA.

`NC(=O)c1cnc2ccc(N3C[C@@H](F)C[C@@H]3c3cc(F)ccc3F)nn12` [X-242]: the IC50 in the series with parental Ba/F3 cells turned out to be 2450 nM. Besides, in series [1] (setting [3]), the IC50 was found to be 0.5 nM. In series [1] (Table 2, read-out: Ba/F3_Te1-Trk-A), the IC50 was determined as 0.5 nM. In addition, in series [2], the F came to 28.2%, the clearance is 18.4 mL/min/kg, the half-life came to 74.4 min and the Vd came to 1.58 L/kg. In series [2], this molecule yielded an exposure (AUC) of 7.09 µM·h and a Cmax of 1730 nM. In addition, in series [2] (in words), the “AUC compared with compound #3 of WO2010/033941” value is “significant and unexpected increases”; the “Cmax compared with compound #3 of WO2010/033941” value is “significant and unexpected increases”.
In the case of `Fc1cccc([C@H]2CC(F)(F)CN2c2ccc3ncc(Br)n3n2)c1` [X-245, (R)-3-bromo-6-(4,4-difluoro-2-(3-fluorophenyl)pyrrolidin-1-yl)imidazo[1,2-b]pyridazine], the values for the IC50 (with parental Ba/F3 cells; in series [1] (setting [3])) were more than 10000 nM and 44 nM, respectively.
In the same order, the values of `N#Cc1cnc2ccc(N3CC(F)(F)C[C@@H]3c3cccc(F)c3)nn12` [X-246, (R)-6-(4,4-difluoro-2-(3-fluorophenyl)pyrrolidin-1-yl)imidazo[1,2-b]pyridazine-3-carbonitrile] are more than 10000 nM and 56 nM.
As for `NC(=O)c1cnc2ccc(N3CC(F)(F)C[C@@H]3c3cccc(F)c3)nn12` [X-247, (R)-6-(4,4-difluoro-2-(3-fluorophenyl)pyrrolidin-1-yl)imidazo[1,2-b]pyridazine-3-carboxamide], the IC50 in the series on parental Ba/F3 cells was more than 10000 nM; in series [1] (setting [3]) it was 34 nM.
For the molecule `NC(=O)NC(=O)c1cnc2ccc(N3CC(F)(F)C[C@@H]3c3cccc(F)c3)nn12` [X-248, (R)-N-carbamoyl-6-(4,4-difluoro-2-(3-fluorophenyl)pyrrolidin-1-yl)imidazo[1,2-b]pyridazine-3-carboxamide], the IC50 in the series on parental Ba/F3 cells was more than 10000 nM; in series [1] (setting [3]), 19 nM.
As to `COC(=O)NC(=O)c1cnc2ccc(N3CC(F)(F)C[C@@H]3c3cccc(F)c3)nn12` [X-249], the IC50 is more than 10000 nM in the series with parental Ba/F3 cells and 18 nM in series [1] (setting [3]).
Turning to `CC(C)NC(=O)c1ccc(F)cc1C1CC(F)(F)CN1c1ccc2ncc(C(N)=O)n2n1` (centres unmarked) [X-250], the IC50 with parental Ba/F3 cells is more than 10000 nM; in series [1] (setting [3]), 64 nM.
Regarding `CC(=O)Nc1cnc2ccc(N3CCC[C@@H]3c3cc(F)ccc3F)nn12` [reference compound], in series [2], the F is recorded as 1.5%, the clearance was found to be 79.2 mL/min/kg, the half-life worked out at 12 min and the Vd came out at 1 L/kg. In series [2], this molecule came in with an exposure (AUC) of 0.087 µM·h and a Cmax of 61 nM.
